Laboratory results from patent publication US3968214A, “5-Methylthio-pyrimidine vasodilators” (Produits Chimiques Ugine Kuhlmann, priority 1973, dated 1976).
Read-outs that look alike come from different tables or passages of the source.

Tests used:
[1] = system: isolated duodenum of rabbit, contractions caused by acetylcholine; assay: Spasmolytic activity, neurotrope versus acetylcholine, isolated duodenum (Magnus)
Description: (§1) The spasmolytic activities are known by means of the technique of R. Magnus (Arch. Ges. Physiol., 1904, 102, 123) on the isolated duodenum of rabbits. The spasmolytic neurotropes inhibit the contractions of the organ caused by acetylcholine, while the musculotropes prevent the spasms induced by barium chloride. The EC 50 expressed in mg/litre are collected in the following Table where EC denotes "Effective concentration".

isolated rabbit heart = assay: Coronaro-dilatatory activity, isolated heart (Langendorff modified by Anderson); conditions: for coronaro-dilatatory activity (in words): isolated rabbit heart
Description: The technique of Langendorff, modified by F. E. Anderson, (J. Pharmacol. exp. Therap., 1948, 91, 135) using isolated rabbit heart permits the coronaro-dilatatory activity of the products to be studied. In this text, the cardiac perfusion liquid contains 0.5 UI/1 of posthypophysis. The results are expressed in the percentage variation of the coronary flow after affusion of the product to be tested, compared with the initial flow.

[2] = Acute toxicity in mice, intravenous and oral (LD50); assay type: in vivo; conditions: mouse, in vivo
Description: The acute toxicities of the compounds according to the invention have been determined CD 1 mice (Charles RIVER) by intravenous and oral methods. The LD50 calculated by the quantal cumulative method of J. J. Reed and H. Muench (Amer. J. Hyg. 1938, 27, 493) are collected in the following Table: […]

[3] = system: isolated duodenum of rabbit, spasms induced by barium chloride; assay: Spasmolytic activity, musculotrope versus BaCl2, isolated duodenum (Magnus)
Description: as §1

[4] = intravenous, read-out: Acute toxicity to mice LD 50, intravenous
[5] = oral, read-out: Acute toxicity to mice LD 50, orally

Compound | Spasmolytic activity EC 50, neurotrope versus acetylcholine [1] [µg/mL] | LD50 [2, 4] [mg/kg] | LD50 [2, 5] [mg/kg] | Spasmolytic activity EC 50, musculotrope versus BaCl2 [3] [µg/mL] | further results
CSc1c(Cl)nc(N(C)Cc2ccccc2)nc1NCCN(C(C)C)C(C)C [Example 11, 2-N-methyl-N-benzylamino-4-(2'-di-isopropyl-amino)-ethylamino-5-methylthio-6-chloro-pyrimidine] | 3.50 | 60 | 675 | 0.02 | Increase of the coronary flow (isolated rabbit heart; dose 0.001 mg): 168%; Increase of the coronary flow (isolated rabbit heart; dose 0.003 mg): 172%; coronaro-dilatatory activity (in words) (isolated rabbit heart): interesting coronaro-dilatatory activities; musculotropic EC 50 [3]: less than 0.1 mg/liter; musculotropic spasmolytic activity (in words) [3]: quite remarkable activities
CCCCOc1nc(N(C)Cc2ccccc2)nc(NCCN(C(C)C)C(C)C)c1SC [Example 31, 2-N-methyl-2-N-benzylamino-4-(2'-di-isopropyl-amino)-ethylamino-5-methylthio-6-butoxy-pyrimidine] |  |  | ~675 |  | 
CCN(CC)CCNc1nc(N(C)c2ccc(OC)c(OC)c2)nc(Cl)c1SC [Example 20, 2-N-methyl-N(3,4-dimethoxy-phenyl)amino-4-(2'-diethylamino)-ethylamino-5-methylthio-6-chloro-pyrimidine] |  |  | 400 |  | 
CCOC(=O)CN(C)c1nc(Cl)c(SC)c(NCCN(C)C)n1 [Example 10, 2-N-methyl-N-(ethoxycarbonylmethyl)-amino-4-(2'-dimethylamino)-ethylamino-5-methylthio-6-chloro-pyrimidine] | 0.50 | 79 | 900 | 0.50 | neurotropic spasmolytic activity (in words) [1]: necessary to call attention
CSc1c(NCCN(C)C)nc(N(C)C)nc1OCc1cccnc1 [Example 23, 2-N-dimethyl-amino-4-(2'-dimethylamino)-ethylamino-5-methyl-thio-6-(3-pyridyl)-methoxy-pyrimidine] | 8.60 | 22 | 175 | 1.00 | 
CCN(CC)CCNc1nc(N(C)C)nc(Cl)c1SC [Example 1, 2-dimethylamino-4-(2'-diethylamine)ethylamino-5-methylthio-6-chloropyrimidine] | 5.50 | 53 | 200 | 1.40 | 
CCOC(=O)CN(C)c1nc(Cl)c(SC)c(NCCN(C(C)C)C(C)C)n1 [Example 15, 2-N-methyl-N-(ethoxycarbonylmethyl)-amino-4-(2'-diisopropylamino)-ethylamino-5-methyl-thio-6-chloro-pyrimidine] |  | 63 | > 900 | 0.05 | Increase of the coronary flow (isolated rabbit heart; dose 0.003 mg): 16%; Increase of the coronary flow (isolated rabbit heart; dose 0.01 mg): 24%; Increase of the coronary flow (isolated rabbit heart; dose 0.03 mg): 44%; Increase of the coronary flow (isolated rabbit heart; dose 0.10 mg): 28%; coronaro-dilatatory activity (in words) (isolated rabbit heart): interesting coronaro-dilatatory activities; musculotropic EC 50 [3]: less than 0.1 mg/liter; musculotropic spasmolytic activity (in words) [3]: quite remarkable activities
CCN(CC)CCNc1nc(N(C)Cc2ccccc2)nc(Cl)c1SC [Example 4, 2-N-methyl-N-benzylamino-4-(2'-diethylamino)-ethylamino-5-methylthio-6-chloro-pyrimidine] | 0.30 | 45 | 525 | 0.06 | neurotropic spasmolytic activity (in words) [1]: necessary to call attention; Increase of the coronary flow (isolated rabbit heart; dose 0.003 mg): 8%; Increase of the coronary flow (isolated rabbit heart; dose 0.01 mg): 28%; Increase of the coronary flow (isolated rabbit heart; dose 0.03 mg): 41%; Increase of the coronary flow (isolated rabbit heart; dose 0.10 mg): 135%; coronaro-dilatatory activity (in words) (isolated rabbit heart): interesting coronaro-dilatatory activities; musculotropic EC 50 [3]: less than 0.1 mg/liter; musculotropic spasmolytic activity (in words) [3]: quite remarkable activities
CSc1c(Cl)nc(N2CCOCC2)nc1NCCN(C)C [Example 9, 2-morpholino-4-(2'-dimethylamino)-ethyl-amino-5-methylthio-6-chloro-pyrimidine] | 3.00 |  | 400 | 1.90 | 
CSc1c(Cl)nc(N(C)C)nc1NCCN(C)C [Example 8, 2-dimethylamino-4-(2'-dimethylamino)-ethylamino-5-methylthio-6-chloro-pyrimidine] | 4.90 | 57 | 525 | 2.80 | 
CCCCOc1nc(N(C)c2ccccc2)nc(NCCN(C(C)C)C(C)C)c1SC [Example 32, 2-N-methyl-N-phenylamino-4-(2'-diiso-propyl-amino)-ethylamino-5-methyl-thio-6-butoxy-pyrimidine] |  |  | ~525 |  | 
CCN(CC)CCNc1nc(N(C)c2ccc(C)cc2)nc(Cl)c1SC [Example 19, 2-N-methyl-N(4-methyl-phenyl)amino-4-(2'-diethylamino)-ethylamino-5-methyl-thio-6-chloro-pyrimidine] |  |  | ~675 |  | 
COc1ccc(N(C)c2nc(NCCN(C(C)C)C(C)C)c(SC)c(OC)n2)cc1OC [Example 28, 2-N-methyl-N-(3,4-dimethoxy-phenyl)-amino-4-(2'-diisopropyl-amino)-ethyl-amino-5-methylthio-6-methoxy-pyrimidine] |  |  | ~200 |  | 
CCN(CC)CCNc1nc(N(C)c2ccc(Cl)cc2)nc(OC)c1SC [Example 25, 2-N-methyl-N(4-chloro-phenyl)amino-4-(2'-diethylamino)-ethylamino-5-methylthio-6-methoxy-pyrimidine] |  |  | ~600 |  | 
CSc1c(Cl)nc(N(C)c2ccc(C)cc2)nc1NCCN(C(C)C)C(C)C [Example 14, 2-N-methyl-N(4-methyl-phenyl)amino-4-(2'-diisopropylamino)-ethylamino-5-methylthio-6-chloro-pyrimidine] | 0.08 | 92 | 900 | 0.04 | neurotropic spasmolytic activity (in words) [1]: necessary to call attention; Increase of the coronary flow (isolated rabbit heart; dose 0.003 mg): 104%; Increase of the coronary flow (isolated rabbit heart; dose 0.01 mg): 140%; Increase of the coronary flow (isolated rabbit heart; dose 0.03 mg): 168%; coronaro-dilatatory activity (in words) (isolated rabbit heart): interesting coronaro-dilatatory activities; musculotropic EC 50 [3]: less than 0.1 mg/liter; musculotropic spasmolytic activity (in words) [3]: quite remarkable activities
CSc1c(Cl)nc(N(C)c2ccc(Cl)cc2)nc1NCCN1CC(C)OC(C)C1 (centres unmarked) [Example 22, 2-N-methyl-N-(4-chloro-phenyl)amino-4-(2'-2,6-dimethyl-morpholino)-ethylamino-5-methylthio-6-chloro-pyrimidine] |  |  | > 900 |  | 
COc1nc(N2CCCCC2)nc(NCCN(C(C)C)C(C)C)c1SC [Example 29, 2-piperidino-4-(2'-diisopropyl-amino)-ethylamino-5-methylthio-6-methoxy-pyrimidine] |  |  | ~200 |  | 
COc1ccc(N(C)c2nc(Cl)c(SC)c(NCCN(C(C)C)C(C)C)n2)cc1OC [Example 21, 2-N-methyl-N(3,4-dimethoxy-phenyl)amino-4-(2'-diisopropylamino)-ethylamino-5-methylthio-6-chloro-pyrimidine] |  |  | ~600 |  | 
